Experimental data: the NIST ThermoML archive (doi:10.1021/je050216m)
Values joined by “and” are separate entries in the source; they are usually repeats but may differ in a detail not shown here. Identical values can stand only once.

Conditions: Crystal, Closed cell (Static) method

c1ccc2ccccc2c1 [naphthalene]
Conditions	vapor or sublimation pressure
258.48 K	0.00011 kPa
258.49 K	0.00011 kPa
263.48 K	0.00022 kPa
263.49 K	0.00023 kPa
268.48 K	0.00042 kPa and 0.00041 kPa and 0.00043 kPa
273.48 K	0.00078 kPa and 0.00077 kPa
273.49 K	0.00078 kPa and 0.00077 kPa
273.68 K	0.0008 kPa and 0.00081 kPa
278.48 K	0.00137 kPa and 0.00138 kPa
278.49 K	0.00138 kPa [middle of 4 runs]
283.49 K	0.00241 kPa
288.49 K	0.00411 kPa and 0.0041 kPa
293.49 K	0.00688 kPa
298.49 K	0.0114 kPa and 0.0113 kPa
303.5 K	0.0183 kPa and 0.0182 kPa
308.51 K	0.029 kPa
313.52 K	0.0454 kPa and 0.0455 kPa
